According to patent US4687762A, “Water soluble drug complex and method for production of same” (Green Cross Corporation, priority 1984, dated 1987):
≈ marks a conversion by molar mass, not a printed value. Where two headings read alike, the source gives them in different places.

Assays:
[1] = Solubility in distilled water for injection; type: physicochemical; conditions: for solubility: component drug, distilled water for injection, 20° C.
[2] = Acute toxicity (LD50) in mice; conditions: mouse, in vivo, drug
Text: The intravenous and oral acute toxicity values (LD50) in mice of each drug-phospholipid complex of this invention were compared with those of the corresponding component drug.

[3] = Blood pressure lowering effect in dogs (Test 2); type: in vivo, dog (male mongrel dogs); conditions: intravenous
Procedure: (§1) The pharmacologic effect of the drug-phospholipid complex according to this invention administered by the intravenous route was compared with that of the component drug administered in the same manner using 10 aminals. Test (1): Antitumor Effect
Test (2): Blood Pressure Lowering Effect
Ten normal male mongrel dogs were intravenously administered with prostaglandin E1 and the blood pressure of each animal was measured using a catheter inserted into the carotid artery of the animal.
The blood pressure lowing ratio was calculated according to the following equation. [formula] wherein P1 represents the blood pressure after the administration and P2 represents that before the administration.

[4] = tested on: L-1210 mouse ascites tumor cells; test: Antitumor effect, life prolongation in L-1210 inoculated mice (Test 1); type: in vivo; conditions: intravenous, 5 days, BDF1 mice
Procedure: as §1
Ten male BDF1 mice ([…]) were inoculated with 10^6 cells of L-1210 mouse ascites tumor cells. After 24 hours from the inoculation Sapdicomycin as a drug was administered to the animals for continuous 5 days, and the number of days in which the test animals were dead. The life prolongation ratio was calculated according to the following equation. [formula] wherein A1 represents an average survival period (day) of control group (without administration) and A2 represents that of administered group.

[5] = design: species or system rat (male Wistar); conditions: rat, in vivo, iv, 1440 min
Text: (§2) The organ affinity of the drug-phospholipid complex according to this invention was compared with that of the component drug. […] Twenty-four hours after the administration, the degree of retention of the drug in each organ was estimated by determining the radio-activity level.

[6] = Oral route absorption in rats; design: species or system rat (male Wistar); conditions: rat, in vivo
Text: as §2, with “oral route absorption” for “organ affinity”, “invention administered” for “invention”, “drug similarly administered.” for “drug.”

[7] = intravenous, read-out: Acute Toxicity (LD50), Intravenous Administration, Drug
[8] = oral, read-out: Acute Toxicity (LD50), Oral Administration, Drug

Row | Compound | solubility [1] [µg/mL] | LD50 [2, 7] [mg/kg] | LD50 [2, 8] [mg/kg] | further results
1 | O=c1[nH]cc(F)c(=O)[nH]1 [5-Fluorouracil] | 13000 (≈ 99900 µM) | 173 | 249 | 
2 | COc1ccc2c(c1)c(CC(=O)OCC(=O)O)c(C)n2C(=O)c1ccc(Cl)cc1 [Acemetacin, acemetacin] | 400 (≈ 962 µM) |  |  | 
3 | COc1cccc2c1C(=O)c1c(O)c3c(c(O)c1C2=O)C[C@@](O)(C(=O)CO)C[C@@H]3O[C@H]1C[C@H](N)[C@H](O)[C@H](C)O1 [Adriamycin, adriamycin] | 7000 (≈ 12900 µM) | 9.1 | 737 | 
4 | COc1cccc2c1C(=O)c1c(O)c3c(c(O)c1C2=O)C[C@@](O)(C(C)=O)C[C@@H]3O[C@H]1C[C@H](N)[C@H](O)[C@H](C)O1 [Daunomycin, daunomycin] | 20000 (≈ 37900 µM) | 23.5 | 271 | 
5 | C[C@@H]1C[C@H]2[C@@H]3CCC4=CC(=O)C=C[C@]4(C)[C@@]3(F)[C@@H](O)C[C@]2(C)[C@@]1(O)C(=O)CO [Dexamethasone, dexamethasone] | 50 (≈ 127 µM) |  |  | 
6 | CC(C(=O)O)c1ccc(-c2ccccc2)c(F)c1 (centres unmarked) [Flurbiprofen, flurbiprofen] | 150 (≈ 614 µM) |  |  | 
7 | CCCCC[C@H](O)/C=C/[C@H]1[C@H](O)CC(=O)[C@@H]1CCCCCCC(=O)O [Prostaglandin E1, prostaglandin E1] | 70 (≈ 197 µM) |  | 7570 | Blood pressure lowering ratio, Drug ([3]; 0.25 mg/kg): 4.8%; Blood pressure lowering ratio, Drug ([3]; 0.5 mg/kg): 7.7%; Blood pressure lowering ratio, Drug ([3]; 1.0 mg/kg): 10.5%
8 | spadicomycin |  |  |  | Solubility, Component Drug ([1]; water): 55 mg/mL; Antitumor effect (life prolongation ratio), Drug ([4]; 2.5 mg/kg): 19%; Antitumor effect (life prolongation ratio), Drug ([4]; 5.0 mg/kg): 25%; Antitumor effect (life prolongation ratio), Drug ([4]; 10.0 mg/kg): 50%; Retention in kidney, Drug [5]: 129 dpm per Gram Organ Weight; Retention in liver, Drug [5]: 585 dpm per Gram Organ Weight; Retention in tumor, Drug [5]: 3800 dpm per Gram Organ Weight; Retention in whole blood, Drug [5]: 825 dpm per Gram Organ Weight; Absorption Rate, Drug [6]: 2.0%
